Test results: patent publication US11413278B2, “Compounds and methods for promoting stress resistance” (priority 2015, dated 2022)
Entries after “also recorded” stand apart in the source; their conditions may differ. Where two headings read alike, the source gives them in different places.

Assays:
[1] = system: WI-38 cells; experiment: CdCl2 (cadmium) resistance assay; format: cell-based, human; conditions: for fold induction at 10 µM: Homo sapiens, 12 h, normalized ATP measurement; for Assay 4: H2O2- & Cd-resistant / Assay 2: Cadmium-resistant: YES/NO; for Assay 2: Cadmium-resistant: * indicates partial
Summary of the method: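 WI-38 cells were given compounds at five final concentrations (0.25–20 μM) in triplicate, followed by cadmium or MMS for 12 h. For MMS, medium was switched from OptiMEM+10% FBS to serum-free DMEM+2% BSA when compounds were added, 24 h before stressor. Two independent assays were run, analysed by global variance t-test.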

[2] = system: mTOR; experiment: mTOR inhibition (RPS6 phosphorylation status), In-Cell Western; format: cell-based, human; conditions: for mTOR down-regulation by p-RPS6 assays: Assay 14(q), at 5 uM, 10 uM & 20 uM
Description: In-Cell Western assays were performed, following a standard immuno-staining protocol. Briefly, WI-38 cells were treated with small molecules for 24 hrs, and then processed and incubated with primary antibody cocktail (Cell Signaling, mouse anti-RPS, 1:25; rabbit-anti-pRPS6-(Ser-235/236), 1:100) overnight at 4° C. Next day, samples were processed and incubated with fluorophore-conjugated secondary antibodies (Cell Signaling, DyLight 680-goat anti-mouse, 1:500; DyLight 800-goat anti-rabbit, 1:1,000). Images were collected on an Odyssey Imager (LI-COR) and analyzed with the Image Studio Lite software (version 5.0.21).
Mammalian target of rapamycin (mTOR) is a crucial regulator of cell growth and metabolism and has been implicated in aging and many diseases, including cancer, diabetes and neurological diseases (Dazert and Hall, 2011; Zoncu et al., 2011). […] In addition, the anti-diabetes drug metformin (Kalender et al., 2010), as well as other AMPK activators such as 2-deoxy-D-glucose (Inoki et al., 2003) and AICAR (Shaw et al., 2004), could inhibit mTORC1. Applicants examined the effects of our molecules (at three doses, 5 μM, 10 μM and 20 μM) on the phosphorylation status of ribosomal protein S6 (RPS6), a readout of mTOR activity, to ask whether they could inhibit mTOR.
In-Cell Western assays were performed, following the same procedures to analyze DNA-damage markers. WI-38 cells were incubated with small molecules for 24 hrs, and then processed and incubated with primary antibody cocktail (mouse anti-RPS, 1:25; rabbit-anti-pRPS6, 1:100) overnight at 4° C. Next day, samples were processed and incubated with fluorophore-conjugated secondary antibodies (goat anti-mouse, 1:500; goat anti-rabbit, 1:1,000) in antibody dilution buffer. Images were collected on an Odyssey Imager (LI-COR) and analyzed with the Image Studio Lite software.

[3] = system: WI-38 cells; experiment: Long-term effects on cell viability (5 days, ATP; morphology, PI imaging); format: cell-based; conditions: 10 μM; for Luminescence signal for ATP measurement, day-1 Average / Luminescence signal for ATP measurement, day-2 Average / Luminescence signal for ATP measurement, day-3 Average / Luminescence signal for ATP measurement, day-4 Average / Luminescence signal for ATP measurement, day-5 Average / viability at 10 µM: Batch 1; for Luminescence signal for ATP measurement, day-1 Average / Luminescence signal for ATP measurement, day-2 Average / Luminescence signal for ATP measurement, day-3 Average / Luminescence signal for ATP measurement, day-4 Average / Luminescence signal for ATP measurement, day-5 Average: n = 6, day-0 luminescence = 320956 ± 24708; for viability at 10 µM: Homo sapiens, WI-38, 120 h, DMSO ctrl = 100.0%, read-out: ATP luminescence by day-5 normalized; for Luminescence signal for ATP measurement, day-5 Average / viability at 10 µM: day-5; for O = Potential toxicity / Q = Potential toxicity / Reduction of ATP content after 5 days of continuous incubation: human, 5 days;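 on Luminescence signal for ATP measurement, day-2 Average: compounds at 10 µM with ATP read daily over 5 days of treatment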;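 on Luminescence signal for ATP measurement, day-3 Average: compounds at 10 µM with ATP read daily over 5 days of treatment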;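 on Luminescence signal for ATP measurement, day-4 Average: compounds at 10 µM with ATP read daily over 5 days of treatment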;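 on Luminescence signal for ATP measurement, day-5 Average: compounds at 10 µM with ATP read daily over 5 days of treatment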
Description: In addition, cell death was scored by PI-imaging on day 2 and day 5 of treatment.
Applicants introduced molecules (at 10 uM final concentration) to WI-38 fibroblasts and then assayed cell viability (through ATP measurement) everyday, during a course of 5 days of continuous treatment. […] Applicants also examined the morphology and scored cell death (propidium iodide staining) for cells treated with the above molecules. Of these 14 molecules, some appeared to cause cell toxicity. […] Despite the observed long-term toxicity, these molecules are still interesting as they may act as anti-tumor agents in vivo, should they have more pronounced cytotoxicity on highly proliferative tumor cells. When cells were incubated with these molecules for ˜24 hrs and then subject to hydrogen peroxide for 3 hrs, these molecules are all protective. […] Some of these small molecules may be toxic by themselves under certain conditions, but by inducing protective mechanisms, they may trigger “hormesis” and therefore protect cells from oxidative stress.

[4] = system: human dermal fibroblast (HDF) primary cells; experiment: H2O2-resistance in primary human dermal fibroblasts; format: cell-based; conditions: for fold induction at 10 µM: Homo sapiens; for Assay 6: H2O2-resistant, at 10 uM, human dermal fibroblast (HDF) primary cells: YES/NO
[5] = system: WI-38 cells; conditions: for Percentage of propidium iodide-positive dead cells (no H2O2 stress treatment), at 10 uM: negative control 0.41% ± 0.23%
Description: WI-38 cells were seeded on 384-well plates for 24 hrs and then incubated with small molecules for 24 hrs. […] Images were collected on an INCell Analyzer 2000 (GE) and analyzed with the Developer software.

[6] = Exp. 1, WI-38 cells, read-out: Exp. 1, under Cd2Cl2 stress treatment, at 10 uM (fold change)
[7] = Exp. 2, WI-38 cells, read-out: Exp. 2, under Cd2Cl2 stress treatment, at 10 uM (fold change)
[8] = WI-38 cells, 10 μM, both stressors
[9] = score in summary of 38 core set hits
[10] = Experiment 1, HDF cells, read-out: Experiment 1, HDF cells (under H2O2 stress treatment), at 10 uM (fold change)
[11] = Experiment 2, HDF cells, read-out: Experiment 2, HDF cells (under H2O2 stress treatment), at 10 uM (fold change)
[12] = Exp. 3, at 5 μM, In-Cell Western, n=4

Structure (SMILES)	fold induction at 10 µM [1, 6]	fold induction at 10 µM [1, 7]	Assay 4: H2O2- & Cd-resistant [1]	Assay 2: Cadmium-resistant [1]	A = Cadmium resistant [1, 9]	A = Cadmium resistant ([1]; summary score)	C = H2O2- & Cd-resistant ([1]; summary score)	G = mTOR down-regulation ([2]; 2-point score)	G = mTOR down-regulation ([2]; summary score)	Luminescence signal for ATP measurement, day-1 Average [3]	Luminescence signal for ATP measurement, day-2 Average [3]	Luminescence signal for ATP measurement, day-3 Average [3]	Luminescence signal for ATP measurement, day-4 Average [3]	Luminescence signal for ATP measurement, day-5 Average [3]	viability at 10 µM [3] [%]	O = Potential toxicity [3]	Q = Potential toxicity [3]	fold induction at 10 µM [4, 10]	fold induction at 10 µM [4, 11]	Assay 6: H2O2-resistant, at 10 uM, human dermal fibroblast (HDF) primary cells [4]	other results
NS(=O)(=O)c1ccc(NC(=O)c2ccc([N+](=O)[O-])o2)cc1 [Gr-1A]	1.46	1.45	YES	YES	1	1	1	0	0	477461	610735	739676	878508	943836	91.9	0	0	3.89	52.5	YES	CdCl2-resistant [1]: YES; H2O2- & CdCl2-resistant [1]: YES; CdCl2-resistant ([1]; WI-38 cells, 10 μM): YES; H2O2- & CdCl2-resistant [1, 8]: YES; Reduction of ATP content after 5 days of continuous incubation [3]: more than 40%; Percentage of propidium iodide-positive dead cells (no H2O2 stress treatment), at 10 uM [5]: 0.79% ± 0.36%,
O=C(Nc1cc(C(F)(F)F)ccc1Cl)c1ccc([N+](=O)[O-])o1 [Gr-1B]	2.01	1.72	YES	YES	1	1	1	0	0	442035	577575	726850	977658	1021113	99.4	1	0	0.51	53.7	YES	CdCl2-resistant [1]: YES; H2O2- & CdCl2-resistant [1]: YES; CdCl2-resistant ([1]; WI-38 cells, 10 μM): YES; H2O2- & CdCl2-resistant [1, 8]: YES; Reduction of ATP content after 5 days of continuous incubation [3]: more than 40%; PI cell-death imaging without H2O2 (indicating potential toxicity) ([5]; Assay 8(k), without H2O2, at 10 uM): YES; PI-positive dead cells under normal conditions ([5]; WI-38, no H2O2, control 0.4±0.2%): 1.0%±0.3%; Percentage of propidium iodide-positive dead cells (no H2O2 stress treatment), at 10 uM [5]: 1.03% ± 0.34%,
O=C(NCc1cccnc1)/C(=C\c1cccc(Oc2ccccc2)c1)S(=O)(=O)c1ccccc1 [Gr-7A]	0.07	0.14	YES	YES	0	1	1	2	2	463265	192116	67526	48480	44670	4.4	0	1	1.2	4.11	YES	mTOR down-regulation by p-RPS6 assays [2]: YES; Exp. 1, normalized reduction in p-RPS6/RPS6 ratio ([2]; Exp. 1, In-Cell Western, n=4): ~61% (−), at 20 μM; Exp. 1, normalized reduction in p-RPS6/RPS6 ratio ([2]; Exp. 1, at 10 μM, In-Cell Western, n=4): ~60% (−), at 10 μM;; Exp. 2, normalized reduction in p-RPS6/RPS6 ratio ([2]; Exp. 2, at 10 μM, In-Cell Western, n=4): ~75% (−), at 10 μM; Exp. 3, normalized reduction in p-RPS6/RPS6 ratio ([2]; Exp. 3, In-Cell Western, n=4): ~92% (−), at 20 μM; Exp. 3, normalized reduction in p-RPS6/RPS6 ratio [2, 12]: ~50% (−), at 5 μM;; Exp. 3, normalized reduction in p-RPS6/RPS6 ratio ([2]; Exp. 3, at 10 μM, In-Cell Western, n=4): ~89% (−), at 10 μM;; mTOR inhibition (p-RPS6/RPS6), qualitative ([2]; In-Cell Western): mTOR-inhibiting activities; also recorded: consistently reduced the ratios
O=C(NCc1cccnc1)/C(=C/c1ccc(-c2ccc(Cl)cc2)o1)S(=O)(=O)c1ccccc1 [Gr-7C]	1.31	0.97	YES	YES	0	1	1	2	2	378655	140712	84446	72490	127440	12.4	0	1	0.074	8.33	YES	mTOR down-regulation by p-RPS6 assays [2]: YES; Exp. 1, normalized reduction in p-RPS6/RPS6 ratio ([2]; Exp. 1, In-Cell Western, n=4): ~80% (−), at 20 μM; Exp. 3, normalized reduction in p-RPS6/RPS6 ratio ([2]; Exp. 3, In-Cell Western, n=4): ~40% (−), at 20 μM; Exp. 3, normalized reduction in p-RPS6/RPS6 ratio [2, 12]: ~38% (−), at 5 μM;; mTOR inhibition (p-RPS6/RPS6), qualitative ([2]; In-Cell Western): consistently reduced the ratios
